These results are taken from ChEMBL document CHEMBL5678818, “Discovery of potent SOS1 inhibitors that block RAS activation via disruption of the RAS-SOS1 interaction” (Proc Natl Acad Sci U S A, 2019).

Molecules are shown by their SMILES.

The target in assay [1] is Calcium/calmodulin-dependent protein kinase type 1B (Homo sapiens) (UniProt Q6P2M8). Description: Inhibition of CAMK1B (unknown origin) assessed as residual activity at 1000 nM by KINOMEscan analysis relative to control.
Assay [2] has as its target Tyrosine-protein kinase Fes/Fps (Homo sapiens) (UniProt P07332). Description: Inhibition of FES (unknown origin) assessed as residual activity at 100 nM by KINOMEscan analysis relative to control.
Another assay is filed under the species Homo sapiens. Description: Inhibition of JNK3 (unknown origin) assessed as residual activity at 100 nM by KINOMEscan analysis relative to control.
The target of assay [3] is T1, Tyrosine-protein kinase Mer (Homo sapiens) (UniProt Q12866).
T1 sequence (whole entry): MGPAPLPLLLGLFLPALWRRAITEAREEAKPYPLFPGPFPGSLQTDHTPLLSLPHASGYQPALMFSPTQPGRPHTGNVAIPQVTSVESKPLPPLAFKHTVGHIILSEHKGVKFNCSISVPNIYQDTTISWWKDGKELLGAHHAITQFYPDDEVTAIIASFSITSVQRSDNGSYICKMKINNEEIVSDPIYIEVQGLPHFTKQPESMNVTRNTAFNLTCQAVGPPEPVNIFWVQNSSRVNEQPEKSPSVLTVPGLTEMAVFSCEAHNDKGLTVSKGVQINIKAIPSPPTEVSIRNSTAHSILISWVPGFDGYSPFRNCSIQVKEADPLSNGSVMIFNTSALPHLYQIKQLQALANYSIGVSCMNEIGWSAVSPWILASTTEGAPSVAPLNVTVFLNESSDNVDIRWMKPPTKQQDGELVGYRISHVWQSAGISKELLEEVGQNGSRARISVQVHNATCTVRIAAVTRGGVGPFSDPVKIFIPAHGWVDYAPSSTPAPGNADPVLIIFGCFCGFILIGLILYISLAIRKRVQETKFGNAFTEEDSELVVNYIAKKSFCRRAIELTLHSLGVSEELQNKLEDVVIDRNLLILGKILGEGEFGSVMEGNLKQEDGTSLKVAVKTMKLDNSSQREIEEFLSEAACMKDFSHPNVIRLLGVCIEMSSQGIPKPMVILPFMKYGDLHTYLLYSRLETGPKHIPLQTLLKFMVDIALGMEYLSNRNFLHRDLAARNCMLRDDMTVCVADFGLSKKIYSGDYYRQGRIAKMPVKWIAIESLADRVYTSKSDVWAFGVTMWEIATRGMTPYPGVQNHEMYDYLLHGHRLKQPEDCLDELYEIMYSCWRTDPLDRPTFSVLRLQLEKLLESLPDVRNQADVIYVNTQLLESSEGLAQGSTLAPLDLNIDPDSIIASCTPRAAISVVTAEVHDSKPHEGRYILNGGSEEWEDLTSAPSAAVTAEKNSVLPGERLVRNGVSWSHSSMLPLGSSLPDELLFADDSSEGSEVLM
Description: Inhibition of MERTK (unknown origin) assessed as residual activity at 100 nM by KINOMEscan analysis relative to control.

Assay [4] has as its target T2, 3-phosphoinositide-dependent protein kinase 1 (Homo sapiens) (UniProt O15530).
T2 sequence (whole entry): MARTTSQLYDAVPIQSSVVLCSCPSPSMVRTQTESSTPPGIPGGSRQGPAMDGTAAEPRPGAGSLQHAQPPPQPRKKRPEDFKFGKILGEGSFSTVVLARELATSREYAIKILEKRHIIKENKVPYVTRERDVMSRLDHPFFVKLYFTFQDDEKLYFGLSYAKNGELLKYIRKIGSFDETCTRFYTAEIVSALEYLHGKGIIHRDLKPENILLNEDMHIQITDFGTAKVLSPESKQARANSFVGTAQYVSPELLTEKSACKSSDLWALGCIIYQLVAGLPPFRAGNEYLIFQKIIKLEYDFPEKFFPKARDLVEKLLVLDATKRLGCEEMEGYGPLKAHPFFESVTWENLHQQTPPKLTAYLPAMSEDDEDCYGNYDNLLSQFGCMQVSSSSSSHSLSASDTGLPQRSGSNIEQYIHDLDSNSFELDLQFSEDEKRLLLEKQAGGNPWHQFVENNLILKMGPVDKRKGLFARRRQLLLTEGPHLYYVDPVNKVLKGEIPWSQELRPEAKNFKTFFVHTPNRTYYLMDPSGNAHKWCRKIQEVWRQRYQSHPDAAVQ
Description: Inhibition of PDPK1 (unknown origin) assessed as residual activity at 100 nM by KINOMEscan analysis relative to control.

In assay [5] the target is T3, Atypical kinase COQ8B, mitochondrial (Homo sapiens) (UniProt Q96D53).
T3 sequence (whole entry): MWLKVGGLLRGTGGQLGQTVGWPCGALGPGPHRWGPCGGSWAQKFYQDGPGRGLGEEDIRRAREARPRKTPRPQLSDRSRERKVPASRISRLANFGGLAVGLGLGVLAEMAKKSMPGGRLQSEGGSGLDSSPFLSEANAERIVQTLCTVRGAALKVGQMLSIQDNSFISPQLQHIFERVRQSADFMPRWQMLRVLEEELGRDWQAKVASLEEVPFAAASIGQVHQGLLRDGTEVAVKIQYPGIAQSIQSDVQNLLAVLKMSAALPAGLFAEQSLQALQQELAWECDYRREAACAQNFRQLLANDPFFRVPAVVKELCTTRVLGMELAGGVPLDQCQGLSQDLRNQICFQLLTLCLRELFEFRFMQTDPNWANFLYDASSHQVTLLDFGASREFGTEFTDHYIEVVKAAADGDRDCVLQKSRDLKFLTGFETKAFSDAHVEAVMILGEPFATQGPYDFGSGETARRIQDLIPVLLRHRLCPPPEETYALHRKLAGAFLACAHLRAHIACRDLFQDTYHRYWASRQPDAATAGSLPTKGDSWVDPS
Description: Inhibition of ADCK4 (unknown origin) assessed as residual activity at 100 nM by KINOMEscan analysis relative to control.

Assay [6] concerns the target Cyclin-dependent kinase 15 (Homo sapiens) (UniProt Q96Q40). Description: Inhibition of PFTAIRE2 (unknown origin) assessed as residual activity at 100 nM by KINOMEscan analysis relative to control.
The test system of assay [7] is Epidermal growth factor receptor (Homo sapiens), P00533 [L858R]. Description: Inhibition of EGFR L858R mutant (unknown origin) assessed as residual activity at 100 nM by KINOMEscan analysis relative to control.
Assay [8] addresses Mitogen-activated protein kinase kinase kinase kinase 1 (Homo sapiens) (UniProt Q92918). Description: Inhibition of HPK1 (unknown origin) assessed as residual activity at 100 nM by KINOMEscan analysis relative to control.
Assay [9] deals with Epidermal growth factor receptor (Homo sapiens), P00533 [L861Q]. Description: Inhibition of EGFR L861Q mutant (unknown origin) assessed as residual activity at 100 nM by KINOMEscan analysis relative to control.
The target in assay [10] is Cyclin-dependent kinase 18 (Homo sapiens) (UniProt Q07002). Description: Inhibition of PCTK3 (unknown origin) assessed as residual activity at 100 nM by KINOMEscan analysis relative to control.
Assay [11] addresses Serine/threonine-protein kinase MRCK gamma (Homo sapiens) (UniProt Q6DT37). Description: Inhibition of DMPK2 (unknown origin) assessed as residual activity at 100 nM by KINOMEscan analysis relative to control.

Tyrosine-protein kinase Fes/Fps (Homo sapiens), sequence (P07332 whole entry): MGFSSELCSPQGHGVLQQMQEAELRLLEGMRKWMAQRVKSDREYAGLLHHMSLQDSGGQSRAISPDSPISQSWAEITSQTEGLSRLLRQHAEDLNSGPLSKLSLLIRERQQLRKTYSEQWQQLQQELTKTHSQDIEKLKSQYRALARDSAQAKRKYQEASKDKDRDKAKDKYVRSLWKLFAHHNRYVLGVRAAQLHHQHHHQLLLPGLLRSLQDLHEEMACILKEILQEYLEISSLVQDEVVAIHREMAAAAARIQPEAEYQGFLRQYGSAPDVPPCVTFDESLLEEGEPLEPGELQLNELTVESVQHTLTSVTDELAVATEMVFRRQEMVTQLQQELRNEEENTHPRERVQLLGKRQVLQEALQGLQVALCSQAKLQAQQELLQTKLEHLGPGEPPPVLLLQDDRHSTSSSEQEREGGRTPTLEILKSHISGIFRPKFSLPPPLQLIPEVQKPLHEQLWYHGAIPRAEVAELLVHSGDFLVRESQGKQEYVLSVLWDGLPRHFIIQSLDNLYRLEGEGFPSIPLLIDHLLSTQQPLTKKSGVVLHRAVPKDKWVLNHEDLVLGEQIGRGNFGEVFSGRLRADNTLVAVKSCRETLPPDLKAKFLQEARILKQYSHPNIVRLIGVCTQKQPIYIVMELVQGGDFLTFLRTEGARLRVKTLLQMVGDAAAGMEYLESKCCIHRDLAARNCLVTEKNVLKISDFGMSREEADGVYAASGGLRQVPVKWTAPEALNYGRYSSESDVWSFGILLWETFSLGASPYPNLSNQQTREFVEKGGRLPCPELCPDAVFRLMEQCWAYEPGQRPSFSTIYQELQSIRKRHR
Cyclin-dependent kinase 18 (Homo sapiens), sequence (Q07002 whole entry): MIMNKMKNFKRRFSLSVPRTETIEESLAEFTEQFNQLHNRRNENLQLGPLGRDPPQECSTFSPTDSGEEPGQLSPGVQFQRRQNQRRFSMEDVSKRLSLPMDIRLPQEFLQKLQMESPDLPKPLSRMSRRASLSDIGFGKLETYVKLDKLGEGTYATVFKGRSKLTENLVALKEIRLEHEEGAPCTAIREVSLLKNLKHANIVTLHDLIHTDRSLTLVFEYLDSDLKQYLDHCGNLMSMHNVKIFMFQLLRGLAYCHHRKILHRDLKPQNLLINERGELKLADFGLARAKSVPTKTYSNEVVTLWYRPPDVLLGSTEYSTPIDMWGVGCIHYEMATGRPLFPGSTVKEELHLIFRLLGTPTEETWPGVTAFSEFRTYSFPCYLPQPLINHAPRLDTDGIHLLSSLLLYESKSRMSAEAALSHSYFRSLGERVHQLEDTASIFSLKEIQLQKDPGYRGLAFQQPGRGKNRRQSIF
Calcium/calmodulin-dependent protein kinase type 1B (Homo sapiens), sequence (Q6P2M8 whole entry): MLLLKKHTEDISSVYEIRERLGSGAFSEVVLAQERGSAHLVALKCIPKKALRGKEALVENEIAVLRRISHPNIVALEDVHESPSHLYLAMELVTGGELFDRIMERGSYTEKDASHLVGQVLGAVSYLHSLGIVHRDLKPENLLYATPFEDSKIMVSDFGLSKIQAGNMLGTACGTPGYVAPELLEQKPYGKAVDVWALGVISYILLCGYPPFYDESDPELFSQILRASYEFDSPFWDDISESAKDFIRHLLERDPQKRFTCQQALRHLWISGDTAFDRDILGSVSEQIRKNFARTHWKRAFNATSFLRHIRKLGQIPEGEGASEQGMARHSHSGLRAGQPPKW
Serine/threonine-protein kinase MRCK gamma (Homo sapiens), sequence (Q6DT37 whole entry): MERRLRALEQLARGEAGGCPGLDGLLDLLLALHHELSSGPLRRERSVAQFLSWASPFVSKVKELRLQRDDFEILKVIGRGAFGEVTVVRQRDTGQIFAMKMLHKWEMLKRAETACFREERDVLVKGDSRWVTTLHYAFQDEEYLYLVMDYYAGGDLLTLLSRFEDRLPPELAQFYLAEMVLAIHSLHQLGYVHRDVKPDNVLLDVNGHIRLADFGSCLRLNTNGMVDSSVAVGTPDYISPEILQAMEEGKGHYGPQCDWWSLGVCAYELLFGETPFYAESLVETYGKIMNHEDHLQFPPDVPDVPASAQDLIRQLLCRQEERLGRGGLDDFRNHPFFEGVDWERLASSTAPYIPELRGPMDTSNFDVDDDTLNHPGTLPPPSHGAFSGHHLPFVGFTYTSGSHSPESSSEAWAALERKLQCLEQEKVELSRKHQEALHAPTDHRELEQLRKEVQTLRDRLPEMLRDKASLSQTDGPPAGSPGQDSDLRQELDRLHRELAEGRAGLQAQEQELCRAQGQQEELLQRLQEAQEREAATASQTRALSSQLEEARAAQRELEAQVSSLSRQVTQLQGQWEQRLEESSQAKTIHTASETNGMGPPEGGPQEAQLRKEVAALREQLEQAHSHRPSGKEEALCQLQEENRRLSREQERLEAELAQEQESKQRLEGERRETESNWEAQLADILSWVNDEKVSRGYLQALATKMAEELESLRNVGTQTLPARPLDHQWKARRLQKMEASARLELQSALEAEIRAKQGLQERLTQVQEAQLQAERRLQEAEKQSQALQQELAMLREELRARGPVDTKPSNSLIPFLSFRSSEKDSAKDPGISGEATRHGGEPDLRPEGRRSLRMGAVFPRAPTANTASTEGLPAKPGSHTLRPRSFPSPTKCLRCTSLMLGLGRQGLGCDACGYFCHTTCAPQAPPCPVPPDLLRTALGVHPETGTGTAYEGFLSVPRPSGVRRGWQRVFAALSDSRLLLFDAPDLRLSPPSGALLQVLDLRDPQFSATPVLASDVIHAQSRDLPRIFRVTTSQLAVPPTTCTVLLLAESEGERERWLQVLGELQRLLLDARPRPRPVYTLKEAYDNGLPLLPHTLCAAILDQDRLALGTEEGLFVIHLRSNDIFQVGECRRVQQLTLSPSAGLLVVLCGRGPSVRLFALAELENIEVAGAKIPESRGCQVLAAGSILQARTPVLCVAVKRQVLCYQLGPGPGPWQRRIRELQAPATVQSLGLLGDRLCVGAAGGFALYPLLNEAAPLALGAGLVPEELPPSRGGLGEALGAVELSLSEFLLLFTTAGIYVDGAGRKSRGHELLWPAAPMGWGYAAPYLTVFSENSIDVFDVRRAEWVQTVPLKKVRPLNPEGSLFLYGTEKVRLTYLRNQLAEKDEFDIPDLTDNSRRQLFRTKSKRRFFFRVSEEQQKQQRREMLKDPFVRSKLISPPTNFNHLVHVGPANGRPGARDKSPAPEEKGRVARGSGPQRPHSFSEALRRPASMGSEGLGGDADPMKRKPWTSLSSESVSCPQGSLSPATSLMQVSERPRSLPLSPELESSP
Cyclin-dependent kinase 15 (Homo sapiens), sequence (Q96Q40 whole entry): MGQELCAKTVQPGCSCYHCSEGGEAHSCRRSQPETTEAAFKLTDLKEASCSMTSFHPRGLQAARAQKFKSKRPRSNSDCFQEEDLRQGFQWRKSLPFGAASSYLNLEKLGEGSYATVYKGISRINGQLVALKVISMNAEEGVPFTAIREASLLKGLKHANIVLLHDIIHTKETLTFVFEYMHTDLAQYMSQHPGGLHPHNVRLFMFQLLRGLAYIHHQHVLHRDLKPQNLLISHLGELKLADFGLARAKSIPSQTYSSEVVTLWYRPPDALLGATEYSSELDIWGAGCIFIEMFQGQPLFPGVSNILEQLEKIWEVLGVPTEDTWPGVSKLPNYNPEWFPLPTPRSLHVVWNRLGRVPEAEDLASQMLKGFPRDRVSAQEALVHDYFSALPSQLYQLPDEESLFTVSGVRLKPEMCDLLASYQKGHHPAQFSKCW
Mitogen-activated protein kinase kinase kinase kinase 1 (Homo sapiens), sequence (Q92918 whole entry, looked up): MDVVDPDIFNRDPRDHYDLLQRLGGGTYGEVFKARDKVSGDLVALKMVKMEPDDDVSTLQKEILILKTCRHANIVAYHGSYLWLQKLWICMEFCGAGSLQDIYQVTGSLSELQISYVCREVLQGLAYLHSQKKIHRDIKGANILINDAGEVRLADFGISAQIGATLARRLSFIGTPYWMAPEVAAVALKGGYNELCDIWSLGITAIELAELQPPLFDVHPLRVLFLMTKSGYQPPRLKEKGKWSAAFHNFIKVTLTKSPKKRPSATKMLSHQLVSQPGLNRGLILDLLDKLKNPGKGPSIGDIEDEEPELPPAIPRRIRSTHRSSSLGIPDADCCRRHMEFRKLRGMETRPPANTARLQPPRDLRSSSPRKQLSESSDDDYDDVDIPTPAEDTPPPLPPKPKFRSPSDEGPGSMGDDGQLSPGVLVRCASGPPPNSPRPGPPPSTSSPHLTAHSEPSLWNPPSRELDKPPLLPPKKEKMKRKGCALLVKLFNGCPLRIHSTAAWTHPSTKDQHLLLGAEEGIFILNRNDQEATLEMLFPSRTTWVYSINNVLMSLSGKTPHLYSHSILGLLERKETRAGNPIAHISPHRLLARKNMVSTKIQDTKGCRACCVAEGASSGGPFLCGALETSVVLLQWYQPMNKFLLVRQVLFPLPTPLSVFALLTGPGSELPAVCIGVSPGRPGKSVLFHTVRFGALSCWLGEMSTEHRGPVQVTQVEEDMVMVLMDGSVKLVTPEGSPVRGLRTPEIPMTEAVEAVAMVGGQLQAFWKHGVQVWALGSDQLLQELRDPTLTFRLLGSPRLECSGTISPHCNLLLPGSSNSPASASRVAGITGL

On to `COc1cc2nc(C)nc(N[C@H](C)c3cccc(-c4cn[nH]c4)c3)c2cc1OC`, for which the Activity in [1] is 85%.
Consider `COc1cc2ncnc(N[C@H](C)c3cccc4ccccc34)c2cc1OC`, for which the Activity in assay [2] was 78%; in the assay filed under Homo sapiens it was 77%; in assay [3], 97%; in assay [4] it was 79%; in assay [5], 61%; in [6], 100%. The Activity is 95% in [7]; 81% in [8]; 95% in [9]; 76% in assay [10]; 33% in assay [11].
